From patent publication US20210401867A1, “PHOTOSENSITIZERS AND METHOD OF TREATING CANCER USING THE SAME” (Cheng-Wen Wu, priority 2018, published 2021)

Legend:
Format in all cases: cell-based, human
[1] = tested on: FaDu cells; experiment: in vitro cell viability of FaDu cells
Description: (§1) In the following examples, FaDu cells are used in cell viability tests and colony forming assays. FaDu cells (ATCC HTB-43) is a human head-and-neck cell line with squamous phenotype. FaDu cells used in the following examples are cultured in DMEM medium supplemented with 10% fetal bovine serum (FBS) and 1% penicillin/streptomycin, in a humidified incubator maintained at 37° C. and 5% CO2.
Referring to FIG. 4, an in vitro cell viability chart of FaDu cells when treated with BrdU is provided in accordance with an exemplary embodiment of the present disclosure. FaDu cells are treated with different dosages of BrdU for 24 hours and then FaDu cells are analyzed daily for cell viability. FaDu cells are derived from pharynx squamous cell carcinoma of human, and are resistant to radiation. 3×10^5 FaDu cells are seeded in 6-cm-plates. After 24 hours, different dosages of BrdU are added into the culture medium and incubated with the FaDu cells for another 24 hours.
Referring to FIG. 5, an in vitro cell viability chart of FaDu cells when treated with IdU is provided in accordance with an exemplary embodiment of the present disclosure. FaDu cells are treated with different dosages of IdU for 24 hours and then FaDu cells are analyzed for cell viability. FaDu cells are seeded in plate and treated with IdU by similar experiment procedures with FIG. 4.
Referring to FIG. 6, an in vitro viability chart of FaDu cells when irradiated by NR is provided in accordance with an exemplary embodiment of the present disclosure. FaDu cells are treated with different radiation doses of NanoRay radiation (NR). FaDu cells are trypsinized and collected by centrifugation. The centrifuged FaDu cells are then re-suspended in PBS in a 1.5-ml tube with 5×10^4 cells in 20 μL. The tube containing centrifuged FaDu cells are then subjected to different radiation doses of NR. […] From FIGS. 4, 5 and 6, it is concluded that an optimized dosage for BrdU and IdU for in vivo experiments would be 10 μM, and the optimized radiation dose for NR is within 4 Gy.

[2] = tested on: FaDu cells; experiment: in vitro cell viability of FaDu cells; settings: for synergy of combination with RS2000 versus RS2000 alone: conventional X-ray RS2000, FaDu cells
[3] = tested on: FaDu cells; experiment: flow cytometry analysis of BrdU/IdU DNA incorporation in FaDu cells; settings: 24 hours
Description: Referring to FIG. 7A, a flow cytometry analysis of FaDu cells without BrdU treatment is provided in accordance with an exemplary embodiment of the present disclosure. FaDu cells are analyzed by flow cytometry using BrdU Flow Kits (BD Pharmingen), in absence of BrdU. FaDu cells are trypsinized, washed, fixed, permeablized, blocked, and then treated with DNase I (5 U/10^6 cells/100 μL) for 1 hour at 37° C. FaDu cells are then hybridized with anti-BrdU antibodies for 1 hour at room temperature. After several washes, FaDu cells are analyzed for fluorescent signals with LSR II Analytic Flow Cytometer (BD Biosciences). […] Referring to FIGS. 7B-D, flow cytometry analyses of FaDu cells when treated with BrdU are provided in accordance with an exemplary embodiment of the present disclosure. In FIGS. 7B-D, FaDu cells are analyzed by flow cytometry with the same experiment procedures for FIG. 7A. FaDu cells in FIGS. 7B, 7C, and 7D are respectively treated with 0.5 μM BrdU, 1 μM BrdU, and 10 μM BrdU for 24 hours. […] The DNA incorporation efficiency of BrdU is 1 μM to more than 90% of FaDu cells, therefore 1 μM would be used in the subsequent experiment as an optimized dosage of BrdU. Referring to FIG. 8A, a flow cytometry analysis of FaDu cells without IdU treatment is provided in accordance with an exemplary embodiment of the present disclosure. FaDu cells are analyzed by flow cytometry using BrdU Flow Kits (BD Pharmingen), in absence of IdU. FaDu cells are treated with similar experiment procedures as in FIG. 7A, but anti-BrdU antibodies are replaced with anti-IdU antibodies. For the detection of IdU-incorporated cells, FaDu cells being treated by anti-IdU antibodies are then hybridized with a secondary antibody conjugated by proper fluorescent dye for 1 hour at room temperature. […] Referring to FIGS. 8B-D, flow cytometry analyses of FaDu cells when treated with IdU are provided in accordance with an exemplary embodiment of the present disclosure. FaDu cells are analyzed by flow cytometry with similar experiment procedures as in 7A. […] The DNA incorporation efficiency of IdU is 10 μM to more than 90% of FaDu cells, therefore 10 μM would be used in the subsequent experiment as an optimized dosage of IdU.

[4] = tested on: FaDu cells; experiment: colony forming assay of FaDu cells
Description: as §1
Referring to FIGS. 9A-C, an in vitro cell viability chart of FaDu cells when treated with BrdU alone, NR alone, and BrdU and NR, is provided in accordance with an exemplary embodiment of the present disclosure. NR treatments in FIGS. 9A, 9B, and 9C are similar with the experiment procedures for FIG. 6. In samples where FaDu cells are treated with BrdU and NR, FaDu cells are incubated with BrdU for 24 hours before irradiated with NR. Referring to FIG. 9B, a colony forming assay result of FaDu cells after the treatments described in […], is provided in accordance with an exemplary embodiment of the present disclosure. The colony forming assay in FIG. 9B are proceeded as following: FaDu cells treated by different regimens are grouped and seeded in 6-well-plates with 1000 cells in each of the well and cultured for 14 days; the culture medium was replaced every 3 to 4 days; in the end of the experiment, the cells are washed twice with PBS and fixed with 4% paraformaldehyde for 15 minutes and stained with 0.1% crystal violet. Referring to FIG. 9C, a quantitative result of the colony forming assay in FIG. 9B is provided in accordance with an exemplary embodiment of the present disclosure. In FIG. 9C, the results of the colony forming assay are quantified by microscopic examination by stereomicroscope.

[5] = 10 μM IdU combined with 1 Gy of 33 keV NR

Row | SMILES | cytotoxicity of the combination with NR [1] | cell viability versus IdU or NR alone [1, 5] | synergy of combination with RS2000 versus RS2000 alone [2] | FaDu cells labeled ([3]; IdU 0.5 μM as printed (FIG. 8B)) | FaDu cells labeled ([3]; more than 10 μM of IdU) | colony forming inhibition versus IdU or NR alone [4, 5] | toxicity ([1]; FaDu cells, 1 μM BrdU) | cell viability ([2]; 1 μM BrdU and 1Gy of RS2000 (conventional X-ray)) | FaDu cells labeled ([3]; 0.5 μM BrdU) | FaDu cells labeled ([3]; more than 1 μM of BrdU) | colony forming inhibition ([4]; 1 μM BrdU combined with 1 Gy of 14 keV NR)
1 | O=c1[nH]c(=O)n([C@H]2C[C@H](O)[C@@H](CO)O2)cc1I [IdU, iododeoxyuridine] | strong synergistic cytotoxicity | lower | does not have synergistic effects | about 84% | more than 90% | higher | – | – | – | – | –
2 | O=c1[nH]c(=O)n([C@H]2C[C@H](O)[C@@H](CO)O2)cc1Br [BrdU, bromodeoxyuridine] | strong synergistic cytotoxicity | – | does not have synergistic effects | – | – | – | almost no toxicity | lower cell viability | about 83% | more than 90% | 57.5%
